Data taken from patent US11485747B2, “Diphenylmethane protective agent” (priority 2016, dated 2022).
In brackets after ≈: the same amount, converted by molar mass. Where a SMILES comes first, the peptide text is derived from it.

Assay: physchem
Assay type: physicochemical
Experimental: Peptide used as model: H-Gly-Gly-Gly-NH2
H-Gly-Gly-Gly-NH2 and H-Gly-Gly-Gly-NH-(TIPS2-Dpm) were synthesized, CPME (cyclopentyl methyl ether) was saturated with each of the compounds at 25° C., and the solubility was measured.

| SMILES | solubility [mM] | increase in solubility |
| --- | --- | --- |
| NCC(=O)NCC(=O)NCC(N)=O [H-Gly-Gly-Gly-NH2, reference compound] (H-Gly-Gly-Gly-NH2) | 0.039 (≈ 0.00734 mg/mL) | – |
| CC(C)[Si](OCCCCCCCCCCCOc1ccc(C(NC(=O)CNC(=O)CNC(=O)CN)c2ccc(OCCCCCCCCCCCO[Si](C(C)C)(C(C)C)C(C)C)cc2)cc1)(C(C)C)C(C)C [H-Gly-Gly-Gly-NH-(TIPS2-Dpm)] | 426 (≈ 443 mg/mL) | ≥ 10,000 fold |
